# Experimental data: patent US4395969A (priority 1981, dated 1983)
# “And” between values parts separate entries of the source, which are not always exact repeats. Equal entries are not always repeated.
# Tests used:
# [1] = tested on: threespine stickleback; design: species or system Gasterosteus aculeatus; settings: in vivo
# [2] = tested on: white sucker; assay: Static bioassay, lethal concentration to white sucker; type: in vivo, C. commmersoni
# Procedure: (§1) Bioassays utilized water from an artesian well at Moscow, Idaho and from the headwaters of the Palouse River, also in Idaho. The chemical characteristics of the artesian water were analyzed as follows: Total hardness 67-120 mg/l; total dissolved solids, 160-175 mg/l; and pH 7.1. The chemistry of the Palouse River water was analyzed as follows: total hardness 17 mg/l; methyl orange alkalinity 26 mg/l; total dissolved solids, 32 mg/l and pH, 7.0.
# (§2) Fish were acclimated to test temperatures, usually at 5, 7.5, 10, 15 and 20 degrees Celsius (C), at least 60 hours before exposure to toxicants. For fish and crayfish four water baths regulated the temperature of assay aquaria. Each water bath contained a battery of 20 identical 19-liter clear glass containers or 11.4-liter plastic aquaria lined with disposable polyethylene bags and covered with Plexiglass lids to reduce evaporation. For larger fish and large numbers of fish the bioassays were made in two temperature controlled rooms that contained a series of 700-liter circular fiberglass vats and a series of 76- and 91-liter plastic containers.
# (§3) Standard bioassay techniques were used in sorting fish and conducting the tests. Fish were placed in aerated test aquaria overnight to permit fish to recover from stress due to handling and to deprive them of food. The average load varied but most bioassays were conducted with about 1 g of fish per liter of water.
# (§4) Aliquots of organophosphates were dissolved in ethanol and dispensed to the aquaria to provide concentrations suitable for obtaining the LC0 and LC50 of desirable fish and the LC50 and LC100 of target fish. Control fish were conditioned in the same manner as the test fish, but no chemical was added to the control vessels during the assays. After the addition of a chemical, observations were made mainly at 3, 6, 12, 24, 48, 96, and 192 h. The weight and fork length of fish were obtained when fishes were sacrificed.
# (§5) Delineation bioassays determined primarily the LC50 and LC100 of sucker and stickleback and the LC0 and LC50 of salmonids.
# (§6) The statistical LC1, LC50, and LC99 were interpolated and/or extrapolated using probit graph paper to approximate the LC0, LC50, and LC100 when the latter set of values was not closely determined by single concentrations in a series.
# (§7) The approximate LC50 and LC100 of the target fishes (threespine and brook sticklebacks and bridgelip and white suckers) are tabulated in Table 1. The 96-hour selectivity and safety indices of selected species of salmonids versus the three-spine stickleback are tabulated in Table 3.
# (§8) Threespine stickleback, brook stickleback, bridgelip sucker, white sucker, chinook salmon, coho salmon, sockeye salmon, kokanee, Kamloops trout, cutthroat trout, and brook trout were treated with various concentrations of 2, 2, 2, 1-tetrachloroethyl diethyl phosphate and at various temperatures to determine approximate selectivity and safety indices. The approximate LC50 and LC100 of the target fishes (threespine and brook sticklebacks and bridgelip and white suckers) are tabulated in Table 5. The 96-hour selectivity and safety indices of selected species of salmonids versus the threespine stickleback are tabulated in Table 7.
# [3] = Static bioassay, lethal concentration to sockeye salmon; type: in vivo, O. nerka; settings: sockeye salmon, in vivo
# Procedure: as §1, §2, §3, §4, §5, §6, §7, §8
# [4] = tested on: sockeye salmon; assay: as above; type: in vivo, O. nerka
# Procedure: as §1, §2, §3, §4, §5, §6, §7, §8
# [5] = Static bioassay, lethal concentration to cutthroat trout; type: in vivo, S. clarki; settings: cutthroat trout, water
# Procedure: as §1, §2, §3, §4, §5, §6, §7, §8
# [6] = tested on: cutthroat trout; assay: as above; type: in vivo, S. clarki
# Procedure: as §1, §2, §3, §4, §5, §6, §7, §8
# [7] = Static bioassay, lethal concentration to brook trout; type: in vivo, Salvelinus fontinalis; settings: brook trout, water, 15 C
# Procedure: as §1, §2, §3, §4, §5, §6, §7, §8
# [8] = tested on: brook trout; assay: as above; type: in vivo, Salvelinus fontinalis; settings: 15 C
# Procedure: as §1, §2, §3, §4, §5, §6, §7, §8
# [9] = tested on: threespine stickleback; design: species or system Gasterosteus aculeatus; settings: in vivo; remark: listed apart in the source
# [10] = Half-life / degradation in water (gas chromatograph analysis); type: physicochemical; settings: river water, 15 C
# Excerpt: The presence of bacteria and other microorganisms affect the rate of degradation of the dichloro- and tetrachloro-compounds. Because of this the chemicals break down much faster in river water than in artesian well water or distilled water. For short term bioassays the potencies of the chemicals were not affected by the chemistry of the water.
# [11] = tested on: sucker and stickleback; settings: in vivo
# [12] = in vivo; settings: chinook salmon
# [13] = tested on: coho salmon; assay: Long-term static bioassay, coho salmon; settings: 64 days, 10 C, individually
# [14] = tested on: Salmonella, five strains; assay: Salmonella standard plate test for mutagens/carcinogens; settings: 0.5, 5, 50, 500, and 5000 mg/l
# [15] = 10 C, individually, read-out: LC50
# [16] = with 4 Cl 300:1, 10 C, read-out: LC50 in combination, 2 Cl component
# [17] = with 2 Cl 1:300, 10 C, read-out: LC50 in combination, 4 Cl component
compound,measurement,setting,value
"CCOP(=O)(OC=C(Cl)Cl)OCC [2,2-dichlorovinyl diethyl phosphate]","LC50 in combination, 2 Cl component",[1],0.3 µg/mL and 0.2 µg/mL
same,LC50,"[2]; 20 C, 24 h",0.10 µg/mL
same,LC50,"[2]; 20 C, 48 h",0.07 µg/mL
same,LC50,"[2]; 20 C, 96 h",0.06 µg/mL
same,LC100,"[2]; 20 C, 96 h",0.10 mg/L
same,LC50,"[2]; 20 C, 192 h",0.05 µg/mL
same,LC100,"[2]; 20 C, 192 h",0.10 mg/L
same,LC50 at 48 h,[3]; 7.5 C,> 10 µg/mL
same,LC50 at 96 h,"[3]; 7.5 C, read-out: LC50",9 µg/mL
same,LC50 at 192 h,"[3]; 7.5 C, read-out: LC50",4 µg/mL
same,LC50 at 48 h,[3]; 10 C,> 8 µg/mL
same,LC50 at 96 h,[3]; [15],6 µg/mL
same,LC50 at 96 h,"[3]; 10 C, read-out: LC50",6 µg/mL
same,LC50 at 192 h,[3]; [15],3.6 µg/mL
same,LC50 at 192 h,"[3]; 10 C, read-out: LC50",3.4 µg/mL
same,LC50 at 96 h,[3]; [16],2.4 µg/mL
same,LC50 at 192 h,[3]; [16],1.8 µg/mL
same,LC0,"[4]; 7.5 C, 48 h",> 10000 µg/L
same,LC0,"[4]; 7.5 C, 96 h",6000 µg/L
same,LC0,"[4]; 7.5 C, 192 h",2000 µg/L
same,LC0,"[4]; 10 C, 48 h",6000 µg/L
same,LC0,"[4]; 10 C, 96 h",3000 µg/L
same,LC0,"[4]; 10 C, 96 h, individually, listed as 2, 2-dichlorovinyl diethyl phosphate",3000 µg/L
same,LC0,"[4]; 10 C, 96 h, individually, listed as 2 Cl",3600 µg/L
same,LC0,"[4]; 10 C, 192 h",2000 µg/L
same,LC50 at 192 h,[5]; 10 C,4.8 µg/mL
same,LC50 at 48 h,[5]; 15 C,5.3 µg/mL
same,LC50 at 96 h,[5]; 15 C,2.5 µg/mL
same,LC50 at 192 h,[5]; 15 C,1.8 µg/mL
same,LC0,"[6]; 10 C, 96 h",4000 µg/L
same,LC0,"[6]; 15 C, 48 h",4000 µg/L
same,LC0,"[6]; 15 C, 96 h",2000 µg/L
same,LC0,"[6]; 15 C, 192 h",1000 µg/L
same,LC50 at 48 h,[7],5 µg/mL
same,LC50 at 96 h,[7],3.3 µg/mL
same,LC50 at 192 h,[7],3.2 µg/mL
same,LC0,[8]; 48 h,4.0 mg/L
same,LC0,[8]; 96 h,2.0 mg/L
same,LC0,[8]; 192 h,0.8 mg/L
same,Selectivity index (LC50/LC50),[9],5.7
same,half-life,[10],< 20 days
same,potency for suckers relative to stickleback,[11],about 10 times
same,LC50 at 192 h,[12],5 µg/mL
same,mortality,[13]; 300 μg/l,essentially no mortality
same,mortality,"[13]; 300 μg/l, listed as 2, 2-dichlorovinyl diethyl phosphate",no significant mortality
same,mutagenic activity,[14],no mutagenic activity
"CCOP(=O)(OCC)OC(Cl)C(Cl)(Cl)Cl (centres unmarked) [2,2,2,1-tetrachloroethyl diethyl phosphate]","LC50 in combination, 4 Cl component",[1],0.001 µg/mL and 0.00067 µg/mL
same,concentration achieving 100% mortality,[1],7 mg/L
same,LC50,"[2]; 15 C, 24 h",0.004 µg/mL
same,LC100,"[2]; 15 C, 24 h",0.01 mg/L
same,LC50,"[2]; 15 C, 48 h",< 0.003 µg/mL
same,LC100,"[2]; 15 C, 48 h",0.01 mg/L
same,LC50 at 48 h,[3]; 7.5 C,0.05 µg/mL
same,LC50 at 96 h,"[3]; 7.5 C, read-out: LC50",0.02 µg/mL
same,LC50 at 192 h,"[3]; 7.5 C, read-out: LC50",0.014 µg/mL
same,LC50 at 48 h,[3]; 10 C,0.03 µg/mL
same,LC50 at 96 h,[3]; [15],0.017 µg/mL
same,LC50 at 192 h,[3]; [15],0.016 µg/mL
same,LC50 at 96 h,[3]; [17],0.008 µg/mL
same,LC50 at 192 h,[3]; [17],0.006 µg/mL
same,LC0,"[4]; 7.5 C, 48 h",36 µg/L
same,LC0,"[4]; 7.5 C, 96 h",14 µg/L
same,LC0,"[4]; 7.5 C, 192 h",10 µg/L
same,LC0,"[4]; 10 C, 48 h",20 µg/L
same,LC50,"[4]; 10 C, 96 h, individually",0.017 µg/mL
same,LC0,"[4]; 10 C, 96 h, individually, listed as 2, 2, 2, 1-tetrachloroethyl diethyl phosphate",12 µg/L and 10 µg/L
same,LC0,"[4]; 10 C, 96 h, individually, listed as 4 Cl",12 µg/L
same,LC0,"[4]; 10 C, 192 h",10 µg/L
same,LC50,"[4]; 10 C, 192 h, individually, listed as 4 Cl, 11520 min",0.015 µg/mL
same,LC50 at 96 h,[5]; 10 C,0.019 µg/mL
same,LC50 at 192 h,[5]; 10 C,0.017 µg/mL
same,LC50 at 48 h,[5]; 15 C,0.022 µg/mL
same,LC50 at 96 h,[5]; 15 C,0.018 µg/mL
same,LC50 at 192 h,[5]; 15 C,0.018 µg/mL
same,LC0,"[6]; 10 C, 96 h",14 µg/L
same,LC0,"[6]; 10 C, 192 h",14 µg/L
same,LC0,"[6]; 15 C, 48 h",14 µg/L
same,LC0,"[6]; 15 C, 96 h",14 µg/L
same,LC0,"[6]; 15 C, 192 h",14 µg/L
same,LC50 at 48 h,[7],0.022 µg/mL
same,LC50 at 96 h,[7],0.02 µg/mL
same,LC50 at 192 h,[7],0.02 µg/mL
same,LC0,[8]; 48 h,0.01 mg/L
same,LC0,[8]; 96 h,0.01 mg/L
same,LC0,[8]; 192 h,0.01 mg/L
same,Safety index (LC0/LC100),[9]; 5760 min,2.3
same,half-life,[10],~11 days
same,activity relative to the dichloro-compounds,[11],about 100 times
same,recommended safe and effective concentration,[11],20 µg/L
same,LC50 at 48 h,[12],0.035 µg/mL
same,LC50 at 96 h,[12],0.025 µg/mL
same,LC50 at 192 h,[12],0.025 µg/mL
same,mortality,[13]; 6 μg/l (or less),Essentially no mortality
same,mortality,"[13]; 6 μg/l (or less), listed as 2, 2, 2, 1-tetrachloroethyl diethyl phosphate",no significant mortality
same,mutagenic activity,[14],no mutagenic activity
